Article PMC3930709, “Selective Activation of hTRPV1 by N-Geranyl Cyclopropylcarboxamide, an Amiloride-Insensitive Salt Taste Enhancer” (PLoS ONE, 2014)
Where “and” joins values, the source holds several entries; their conditions need not be identical. Identical values can stand only once.

Tests used:
hTRPV1 = molecular target: T1, hTRPV1 (Homo sapiens, UniProt Q8NER1); assay: Measurement of Ca2+ influx (Fluo-4 AM, FlexStation III) in hTRPV1-expressing cells; type: cell-based
T1 construct: expressed in transfected cells; host or cells: HEK293T
Description: hTRPV1 was constructed by amplification of the hTRPV1 region (NCBI accession number: NG_029716.1) and cloned into pEAK10 vector (Edge Biosystems, Gaithersburg, MD, USA). The hTRPV1 construct was amplified by PCR and the nucleotide sequence of the hTRPV1 gene was confirmed by sequencing with an ABI 3130 DNA genetic analyzer (Applied Biosystems, Foster City, CA, USA). […] After 6 h, transfected cells were seeded onto 96-well black-wall plate (BD Falcon Labware, Franklin Lakes, NJ, USA) for 18–26 h prior to their use in an experiment. The ligand-induced changes on cytosolic Ca^2+ level were monitored by a FlexStation III microplate reader (Molecular Devices). Fluo-4 AM (5 µM, Molecular Probes, Eugene, OR, USA) in assay buffer was loaded to the cells in 96-well black-wall plates for 30 min at 27°C. After dye treatment, each chemical was added to each well at 17 s and changes on intracellular Ca^2+ level were monitored by relative fluorescence units (ΔRFU, Ex = 485 nm; Em = 516 nm) for 120 s. […] The responses from at least three wells receiving the same stimulus were averaged. Plots of amplitude versus concentration were fitted using the Hill equation.

hTRPA1 = molecular target: T2, hTRPA1 (Homo sapiens, UniProt O75762); assay: Whole-cell patch clamp recording, cells stably expressing hTRPA1; type: cell-based; conditions: NGCC 10^3 µM
T2 construct: expressed in transfected cells
Description: Flp-In 293 cell lines stably expressing hTRPA1constructed as previously reported was a gift from the professor Takumi Misaka at University of Tokyo. The hTRPA1-expressing cells were cultured in DMEM containing 10% FBS and 0.02% hygromycin B (Invitrogen). Flp-In 293 cell lines were maintained in DMEM containing 10% FBS. All cells were incubated at 37°C in a humidified atmosphere of 5% CO2.
The whole-cell configuration was used to voltage-clamp at room temperature (22–25°C). Electrodes pulled from glass micropipette capillaries (Sutter Instrument) had resistances of 2–2.5 MΩ, and series resistance errors were compensated >60%. Fast and slow capacitances were compensated before the application of test-pulse. Recordings were performed using aHEKAEPC-10 amplifier with pulse software (HEKA Elektronik). The pipette solution contained: 140 mM KCl, 5 mM MgCl2, 10 mM HEPES, 0.1 mM 1,2-bis(2-aminophenoxy) ethane N,N,N’,N’-tetraacetic acid(BAPTA), 3 mM Na2ATP, and 0.1 mM Na3GTP, adjusted to pH 7.4 with KOH. The external Ringer’s solution used for recording TRPV1 and TRPA1 currents contained: 150 mM NaCl, 5 mM KCl, 1 mM MgCl2, 2 mM EGTA, 10 mM Glucose, and 10 mM HEPES, adjusted to pH 7.4 with NaOH. TRPV1 and TRPA1 currents were recorded by holding the cell at −80 mV. The external Ringer’s solution used for recording ASIC current contained: 160 mM NaCl, 5 mM KCl, 1 mM MgCl2, 2 mM CaCl2, and 10 mM HEPES, adjusted to pH 7.4 with tetramethylammonium hydroxide. For acidic solution of pH 6.0, HEPES was replaced with MES. ASIC currents were recorded by holding the cell at −70 mV. Reagents were obtained as follows: BAPTA, Na2ATP, Na3GTP, EGTA, and tetramethylammonium hydroxide (Sigma), HEPES (Calbiochem), MES (Alfa Aesar), and other chemicals (Merck).

T1 sequence (Q8NER1 whole entry): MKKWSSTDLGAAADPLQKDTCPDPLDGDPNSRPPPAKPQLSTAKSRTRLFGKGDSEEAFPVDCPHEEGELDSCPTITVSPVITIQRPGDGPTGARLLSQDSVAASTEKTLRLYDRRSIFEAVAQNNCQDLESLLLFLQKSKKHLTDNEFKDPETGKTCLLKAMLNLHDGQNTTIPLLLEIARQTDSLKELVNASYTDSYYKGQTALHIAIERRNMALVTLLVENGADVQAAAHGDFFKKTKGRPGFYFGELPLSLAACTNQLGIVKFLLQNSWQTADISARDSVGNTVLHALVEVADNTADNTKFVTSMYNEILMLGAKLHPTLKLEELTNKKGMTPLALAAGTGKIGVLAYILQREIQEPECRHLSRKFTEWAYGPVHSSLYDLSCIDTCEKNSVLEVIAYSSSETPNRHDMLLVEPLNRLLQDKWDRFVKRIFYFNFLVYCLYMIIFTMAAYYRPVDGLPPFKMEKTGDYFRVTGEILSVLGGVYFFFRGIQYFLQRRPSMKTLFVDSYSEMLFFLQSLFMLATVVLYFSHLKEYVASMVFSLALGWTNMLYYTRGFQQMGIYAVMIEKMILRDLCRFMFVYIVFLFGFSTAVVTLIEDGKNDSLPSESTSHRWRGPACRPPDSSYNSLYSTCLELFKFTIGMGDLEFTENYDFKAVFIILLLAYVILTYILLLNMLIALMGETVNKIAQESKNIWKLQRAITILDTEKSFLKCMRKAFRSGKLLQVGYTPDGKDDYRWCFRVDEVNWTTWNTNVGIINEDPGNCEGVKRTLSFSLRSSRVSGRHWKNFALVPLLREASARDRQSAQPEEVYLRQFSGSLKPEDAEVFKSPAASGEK
T2 sequence (O75762 whole entry): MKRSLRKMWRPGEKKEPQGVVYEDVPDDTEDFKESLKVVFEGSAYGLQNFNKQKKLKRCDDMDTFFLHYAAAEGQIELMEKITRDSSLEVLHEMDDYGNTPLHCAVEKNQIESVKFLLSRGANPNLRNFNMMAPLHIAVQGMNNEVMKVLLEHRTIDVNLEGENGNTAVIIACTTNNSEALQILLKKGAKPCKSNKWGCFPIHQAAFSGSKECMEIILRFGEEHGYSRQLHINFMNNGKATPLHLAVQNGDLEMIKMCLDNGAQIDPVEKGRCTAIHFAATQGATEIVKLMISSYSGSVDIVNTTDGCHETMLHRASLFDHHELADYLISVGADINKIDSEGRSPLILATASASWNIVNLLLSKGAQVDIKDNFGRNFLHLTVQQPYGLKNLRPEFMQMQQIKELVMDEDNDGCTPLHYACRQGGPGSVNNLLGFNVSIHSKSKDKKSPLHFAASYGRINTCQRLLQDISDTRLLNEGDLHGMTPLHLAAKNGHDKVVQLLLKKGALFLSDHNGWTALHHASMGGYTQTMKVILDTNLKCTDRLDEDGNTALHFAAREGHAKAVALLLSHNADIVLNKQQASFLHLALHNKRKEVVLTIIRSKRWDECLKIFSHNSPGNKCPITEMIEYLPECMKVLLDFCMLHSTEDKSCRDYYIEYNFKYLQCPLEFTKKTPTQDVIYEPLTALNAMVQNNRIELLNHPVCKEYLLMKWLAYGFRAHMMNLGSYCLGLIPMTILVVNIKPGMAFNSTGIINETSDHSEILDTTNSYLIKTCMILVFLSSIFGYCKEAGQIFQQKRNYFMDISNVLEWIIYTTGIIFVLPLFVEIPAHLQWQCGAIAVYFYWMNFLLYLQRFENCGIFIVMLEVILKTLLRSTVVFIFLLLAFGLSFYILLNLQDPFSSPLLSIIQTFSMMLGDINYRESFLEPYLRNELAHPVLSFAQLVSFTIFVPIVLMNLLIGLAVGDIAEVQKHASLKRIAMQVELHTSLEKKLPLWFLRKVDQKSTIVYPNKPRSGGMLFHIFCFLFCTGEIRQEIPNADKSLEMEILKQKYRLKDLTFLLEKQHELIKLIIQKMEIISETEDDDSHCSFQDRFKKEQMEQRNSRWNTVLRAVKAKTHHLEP

EC50 (hTRPV1; hTRPV1-expressing HEK293T cells, Hill fit): 115 µM and ~115 µM | increase in [Ca2+]i relative to capsaicin (hTRPV1; hTRPV1-expressing cells): significantly smaller increase | inward current in hTRPA1-expressing cells (hTRPA1; AITC 100 µM, holding -80 mV): induced an inward current | amplitude of current compared with AITC (100 µM) (hTRPA1; same cell): bigger than that of AITC
SMILES: CC(C)=CCC/C(C)=C/CNC(=O)C1CC1 [NGCC, N-geranylcyclopropylcarboxamide]
